From patent US20040101915A1, “Diagnosis and treatment of chemoresistant tumors” (IRM LLC, a Delaware Limited Liability Company, priority 2002, published 2004)

How the values were obtained:
K422 cells [1] = experiment: Morphological examination of treated FL cells; type: cell-based, human; details: FL cells DOHH2, K422, RL-7
K422 cells [2] = experiment: Caspase activity assay (AFC release from DEVD-AFC) in lysates of treated cells; type: cell-based, human; details: 100 nM
Experimental: Caspase activities were assayed as previously described (Stennicke and Salvesen, 2000) at 37° C. in 40 μl of caspase buffer (50 mM HEPES pH 7.4, 100 mM NaCl, 10% sucrose, 1 mM EDTA, 0.1% CHAPS and 10 mM DTT) containing 100 μM of the fluorogenic peptide Ac-DEVD-AFC. Activity was measured continuously over the indicated time by the release of AFC from DEVD-AFC using a Molecular Devices fluorometer in the kinetic mode and with the 405-510 filter pair. For the assessment of caspase activity in intact cells after treatment with different apoptosis stimuli 10-20 μg of total cell protein (Triton X-100 extracts) was used in 40 μl of caspase buffer (containing 100 μM DEVD-AFC). For in-vitro initiation of caspase activity by cytochrome c Triton X-100 free, hypotonic cytosolic extracts were prepared and 10 μM horse heart cytochrome c (Sigma) together with 1 mM dATP or recombinant active caspase-8 (20 nM) were used for caspase activation (Deveraux et al., 1997). For reconstitution of RL-7 hypotonic cell extracts recombinant pro-caspase-3 was used as previously described (Stennicke et al., 1998).

K422 cells [3] = experiment: Western blot analysis of caspase processing in treated FL cells; type: cell-based, human; details: 100 nM; for processing of caspase-8: DOHH2, K422 and RL-7; for caspase processing of the caspases-2, -3, -7 and -9: K422 versus DOHH2 and RL-7
Source text: Western blot analysis was used to evaluate protein expression.

K422 cells [4] = experiment: MTT cytotoxicity assay, K422 cells; type: cell-based, human; details: for difference in IC50 concentrations in K422 cells compared to the other cell lines tested: 24 hours, MTT, other lines DOHH2, Jurkat, Jurkat bcl-2, RL-7
Experimental: An MTT cytotoxicity assay was used to determine the number of viable cells following treatment with various apoptotic stimuli. Cells (100 μl of a 8×10^5 cells/ml suspension) were added to each well of a 96 well plate and incubated with etoposide or doxorubicin for 24-72 h. MTT dye solution was then added for 4 h, the blue crystal product was solubilized over night at 37° C. and absorbance was measured at 570 nm. Because the MTT assay also measures growth arrest, the MTT results were verified with caspase activity assays.

NCI 60 tumor cell panel = details: NCI database; cited from earlier work
[5] = tested on: DR5 protein levels in DOHH2 cells; details: 4.25 μM etoposide, Western blot
Experimental: Western blot analysis was used to evaluate protein expression. Cells (2.4×10^6 well) were seeded in 6 well plates and treated with the respective apoptosis stimuli. After the indicated time periods cells were washes in ice cold PBS and lysed in 1% Triton X-100 containing hypotonic lysis buffer (20 mM HEPES pH 7.5, 10 mM KCl, 1.5 mM MgCl2, 1 mM EDTA and 1 mM DTT). Protein (40 μg) was electorphoresed under reducing conditions on 10-20% gradient SDS-polyacrylamide gels. After electroblotting on nitrocellulose membranes (Schleicher and Schuell) the membranes were blocked for 1 h with 10% non-fat milk powder and immunoblotted for 1 h with the following primary antibodies: rabbit anti-DR5 polyclonal antibody (1:500, Cayman Chemicals), mouse anti-Fas monoclonal antibody CH-11 (MBL), rabbit anti-caspase-3 polyclonal antibody (1:1000, Pharmingen), rabbit anti-caspase-8 polyclonal antibody (1:1000, Pharmingen), mouse anti-caspase-9 monoclonal antibody 5B4 (1:1000, MBL), mouse anti-bcl-2 monoclonal antibody (1:500, Pharmingen) or goat anti-actin polyclonal antibody (1:200, Santa Cruz Biotechnology). Membranes were washed five times with TBS/0.05% Tween, incubated with the respective peroxidase conjugated affinity purified secondary antibody (1:5000, Biorad) for 30 min, washed again five times and developed using enhanced chemiluminescence (ECL, Amersham).

RL-7 cells = experiment: MTT cytotoxicity assay, RL-7 cells; type: cell-based, human; details: etoposide 0.425 μM 4 hours then agonistic anti-DR5 antibodies 12 hours
DOHH2 cells = experiment: MTT cytotoxicity assay, DOHH2 cells; type: cell-based, human; details: etoposide 0.425 μM 4 hours then agonistic anti-DR5 antibodies 12 hours, compared to drug or antibody alone

Row | SMILES | classical features of apoptosis (morphology) (K422 cells [1]) | caspase activation (enzymatic activity) (K422 cells [2]) | processing of caspase-8 (K422 cells [3]) | caspase processing of the caspases-2, -3, -7 and -9 (K422 cells [3]) | difference in IC50 concentrations in K422 cells compared to the other cell lines tested (K422 cells [4]) [fold] | sensitivity of NCI 60 tumor cell panel (NCI 60 tumor cell panel) | DR5 protein levels following exposure [5] | effect of etoposide pretreatment on apoptosis induced by anti-DR5 antibody (RL-7 cells) | effect of etoposide pretreatment on apoptosis induced by anti-DR5 antibody (DOHH2 cells) | effect of etoposide pretreatment on apoptosis induced by anti-DR5 antibody (K422 cells [4]; K422, etoposide 0.425 μM 4 hours then agonistic anti-DR5 antibodies 12 hours)
1 | C[C@H]1CCC/C=C/[C@@H]2C[C@H](O)C[C@H]2[C@H](O)/C=C/C(=O)O1 [Brefeldin A] | only K422 exhibited the classical features of apoptosis | induced caspase activation | remained unprocessed in all of the cell lines | only in K422 but not DOHH2 or the caspase-3 deficient RL-7 cells | 6 | one of the most sensitive cell lines is NCI/ADR |  |  |  | 
2 | CO[C@@H]1[C@H]([N+](C)(C)C)CC2O[C@]1(C)n1c3ccccc3c3c4c(c5c6ccccc6n2c5c31)C(=O)NC4 [Staur-F3] | only K422 exhibited the classical features of apoptosis | induced caspase activation | remained unprocessed in all of the cell lines | only in K422 but not DOHH2 or the caspase-3 deficient RL-7 cells | 25 |  |  |  |  | 
3 | COc1cccc2c1C(=O)c1c(O)c3c(c(O)c1C2=O)C[C@@](O)(C(=O)CO)C[C@@H]3O[C@H]1C[C@H](N)[C@H](O)[C@H](C)O1 [doxorubicin] |  |  |  |  |  |  | significantly increased |  |  | 
4 | COc1cc([C@@H]2c3cc4c(cc3[C@@H](O[C@@H]3O[C@@H]5CO[C@@H](C)O[C@H]5[C@H](O)[C@H]3O)[C@H]3COC(=O)[C@H]23)OCO4)cc(OC)c1O [etoposide] |  |  |  |  |  |  | significantly increased | negligible effect | significantly increased apoptosis | negligible effect
